15 molecules from PMC9643853, “Synthesis and evaluation of 3-alkynyl-5-aryl-7-aza-indoles as broad-spectrum antiviral agents” (Frontiers in Chemistry, 2022) can be followed below.

SMILES strings stand for the structures. Where only a bound is given, the exact number is not on record here.

The subject of data set [1] is RSV-A. The data set can be described thus: RSV-A cytopathic effect (CPE) reduction assay in HEp-2 cells, MTS read-out. As to conditions: for EC50: human respiratory syncytial virus, HEp-2, 96 h, read-out: RSV-A EC50. In kind it is cell-based, human respiratory syncytial virus, RSV-A strain Long.
The nature of data set [2]: in vitro. The note with it: human.
The nature of data set [3]: in vitro. The note with it: human. This is another data set of the same source.
A further data set concerns VEEV (TC-83). Kind of data set: microbe, parasite or virus in culture. It counts as cell-based. The note with it: Venezuelan equine encephalitis virus, U-87 MG, 18 h, read-out: VEEV EC50.
For another data set, the system named is SARS-CoV-2. The data set can be described thus: microbe, parasite or virus in culture. It counts as cell-based, SARS-CoV-2 BetaCov/Belgium/GHB-03021/2020. As to conditions: Severe acute respiratory syndrome coronavirus 2, 96 h, read-out: SARS-CoV-2 EC50.
A short description of data set [4]: in vitro. As to conditions: African green monkey.
The subject of data set [5] is RSV-A. Kind of data set: Anti-RSV-A activity in A549 cells, viral RNA in supernatant by RT-qPCR. In kind it is cell-based, RSV-A strain Long. As to conditions: human respiratory syncytial virus, 120 h; A549 cells, RT-qPCR of culture supernatant, MOI 0.1, 5 days; read-out: RSV-A EC50 (A549, viral RNA levels). (In qPCR the cycle at which signal appears reflects the starting amount.)

Another data set deals with AAK1 (Homo sapiens, UniProt Q2M2I8). Kind of data set: LanthaScreen Eu Kinase Binding Assay for AAK1. For orientation: In TR-FRET formats the signal depends on donor and acceptor labels being close together.
AAK1, sequence (Q2M2I8 whole entry): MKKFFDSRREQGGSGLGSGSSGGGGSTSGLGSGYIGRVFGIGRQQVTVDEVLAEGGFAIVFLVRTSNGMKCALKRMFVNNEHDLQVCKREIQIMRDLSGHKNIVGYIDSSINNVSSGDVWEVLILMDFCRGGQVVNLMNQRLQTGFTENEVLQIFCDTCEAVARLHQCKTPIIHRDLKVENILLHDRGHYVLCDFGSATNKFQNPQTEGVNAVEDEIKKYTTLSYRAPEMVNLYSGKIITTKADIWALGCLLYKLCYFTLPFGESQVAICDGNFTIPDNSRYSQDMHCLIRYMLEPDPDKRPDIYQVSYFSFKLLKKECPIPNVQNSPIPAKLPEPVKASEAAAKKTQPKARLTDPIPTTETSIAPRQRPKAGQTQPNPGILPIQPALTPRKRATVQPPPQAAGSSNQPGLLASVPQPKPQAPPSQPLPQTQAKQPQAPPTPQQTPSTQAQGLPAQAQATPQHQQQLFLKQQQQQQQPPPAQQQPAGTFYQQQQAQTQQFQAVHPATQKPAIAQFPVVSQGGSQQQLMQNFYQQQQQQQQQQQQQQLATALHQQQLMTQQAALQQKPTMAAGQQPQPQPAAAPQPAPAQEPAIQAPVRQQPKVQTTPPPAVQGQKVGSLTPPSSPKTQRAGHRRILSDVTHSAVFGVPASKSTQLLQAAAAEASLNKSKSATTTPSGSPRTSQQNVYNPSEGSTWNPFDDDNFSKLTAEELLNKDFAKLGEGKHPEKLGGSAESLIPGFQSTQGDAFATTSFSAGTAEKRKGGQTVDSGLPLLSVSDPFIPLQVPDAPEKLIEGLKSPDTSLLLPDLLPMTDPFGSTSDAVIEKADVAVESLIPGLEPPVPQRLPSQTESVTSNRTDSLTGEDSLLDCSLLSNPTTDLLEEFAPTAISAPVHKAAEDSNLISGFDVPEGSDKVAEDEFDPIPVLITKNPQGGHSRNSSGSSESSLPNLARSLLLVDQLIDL

What is called EC50 is the midpoint of the concentration-response curve. As to `O=C(NC1CC1)c1ccc(-c2cnc3[nH]cc(C#Cc4cccnc4)c3c2)cc1` [Compound 8d], the results for the EC50 with RSV-A [1] and in the data set on VEEV (TC-83) were 4.63 ± 3.71 µM and over 10 µM, respectively. The CC50 at 4 days in the data set “in vitro [2]” worked out at 50 µM. The CC50 in “in vitro [3]” was over 10 µM.
As to `COc1cc(OC)cc(-c2cnc3[nH]cc(C#Cc4ccccc4)c3c2)c1` [Compound 5b], the EC50 was 1.59 ± 0.59 µM with RSV-A [1] and over 10 µM in the data set with VEEV (TC-83). The same molecule returned a CC50 at 4 days in “in vitro [2]” of 6 ± 4.35 µM. Further, the CC50 in the data set “in vitro [3]” is over 10 µM.
For the molecule `O=C(NC1CC1)c1cccc(-c2cnc3[nH]cc(C#Cc4cccc(Cl)c4)c3c2)c1` [Compound 9f], in the data set on RSV-A [1] (HEp-2 cells), the “anti-RSV activity (in words)” value is “inactive”. Moreover, the concentration for a half-maximal effect (EC50) in the data set with RSV-A [1] was over 50 µM; in the data set on VEEV (TC-83) it was 6.7 ± 2.79 µM. Moreover, the CC50 at 4 days in the data set “in vitro [2]” was over 50 µM. The molecule also yielded a CC50 in “in vitro [3]” of over 10 µM.
Take `O=C(NCc1ccccc1)c1cccc(-c2cnc3[nH]cc(C#Cc4cccnc4)c3c2)c1` [Compound 8i]: the EC50 with RSV-A [1] is 2.71 ± 2.88 µM; with VEEV (TC-83) it was 1.29 ± 1.41 µM. The CC50 at 4 days in the data set “in vitro [2]” is over 50 µM. Also, in “in vitro [3]”, the CC50 is over 10 µM.
Consider `Fc1ccc(-c2cnc3[nH]cc(C#Cc4cccnc4)c3c2)cc1` [Compound 4i], for which the EC50 with RSV-A [1] was 2.23 ± 1.32 µM; in the data set on VEEV (TC-83) it was 9.05 ± 1.03 µM. This molecule yielded a CC50 at 4 days in the data set “in vitro [2]” of over 50 µM. The CC50 in the data set “in vitro [3]” was over 10 µM.
`COc1ccc(-c2cnc3[nH]cc(C#Cc4cccnc4)c3c2)cc1` [Compound 4a, 5-(4-Methoxyphenyl)-3-(pyridin-3-ylethynyl)-1H-pyrrolo[2,3-b]pyridine]: the results for the EC50 in the data set on RSV-A [1] and in the data set with VEEV (TC-83) were 0.048 ± 0.037 µM and 6.81 ± 1.87 µM, respectively. The molecule further returned a CC50 at 4 days in the data set “in vitro [2]” of 0.24 ± 0.23 µM. In addition, the CC50 in the data set “in vitro [3]” is over 10 µM.
Regarding `O=C(c1cccc(-c2cnc3[nH]cc(C#Cc4cccnc4)c3c2)c1)N1CCCC1` [Compound 8L], the EC50 was 0.96 ± 0.32 µM in the data set on SARS-CoV-2, 1 ± 0.94 µM with RSV-A [1] and over 10 µM in the data set on VEEV (TC-83). Further, the results for the CC50 in the data set “in vitro [4]” and in the data set “in vitro [3]” were 6.46 ± 1.75 µM and over 10 µM, respectively. The CC50 at 4 days in the data set “in vitro [2]” was 5.71 ± 0.044 µM.
One may read the IC50 as the concentration that gives 50% inhibition. In the case of `CNC(=O)c1cccc(-c2cnc3[nH]cc(C#Cc4cccnc4)c3c2)c1` [Compound 8e], the results for the concentration giving a half-maximal response (EC50) with RSV-A [1], in the data set on RSV-A [5] and with VEEV (TC-83) were 0.29 ± 0.32 µM, 0.2 µM and over 10 µM, respectively. In “in vitro [2]”, this molecule came in with a CC50 at 4 days of over 50 µM. The CC50 in “in vitro [3]” was over 10 µM. Moreover, on AAK1, the “AAK1 affinity (in words)” value is reported as “low nanomolar AAK1 affinity”. The molecule further returned an IC50 on AAK1 of 0.0035 µM.
Take `CNC(=O)c1ccc(-c2cnc3[nH]cc(C#Cc4cccnc4)c3c2)cc1` [Compound 8a]: the results for the EC50 in the data set with RSV-A [1] and in the data set on VEEV (TC-83) were 0.89 ± 0.4 µM and 2.72 ± 0.93 µM, respectively. Also, in the data set “in vitro [2]”, the CC50 at 4 days is 6 ± 5.66 µM. For the same molecule, in “in vitro [3]”, the CC50 is over 10 µM.
In the case of `COc1cc(-c2cnc3[nH]cc(C#Cc4cccnc4)c3c2)cc(OC)c1OC` [Compound 4e], the results for the EC50 in the data set on RSV-A [1] and in the data set on VEEV (TC-83) were 0.71 ± 0.55 µM and 1.5 ± 0.17 µM, respectively. The CC50 at 4 days in “in vitro [2]” is 1.2 ± 1.13 µM. The molecule further gave a CC50 in “in vitro [3]” of over 10 µM.
For `O=C(c1cccc(-c2cnc3[nH]cc(C#Cc4cccnc4)c3c2)c1)N1CCOCC1` [Compound 8m], the figures for the concentration for a half-maximal effect (EC50) with RSV-A [1] and with VEEV (TC-83) were 3.42 ± 4.4 µM and over 10 µM, respectively. The molecule also had a CC50 at 4 days in “in vitro [2]” of 10.9 ± 0.69 µM. The molecule further came in with a CC50 in the data set “in vitro [3]” of over 10 µM.
`O=C(NC1CC1)c1cccc(-c2cnc3[nH]cc(C#Cc4cccnc4)c3c2)c1` [Compound 8f]: the EC50 stood at 0.16 ± 0.025 µM in the data set with RSV-A [1], 0.59 µM in the data set on RSV-A [5] and 2.75 ± 1.22 µM in the data set with VEEV (TC-83). This molecule displayed a CC50 at 4 days in “in vitro [2]” of over 50 µM. Further, the CC50 in the data set “in vitro [3]” was over 10 µM. Further, the “AAK1 affinity (in words)” value on AAK1 was “low nanomolar AAK1 affinity”. For the same molecule, the IC50 at AAK1 worked out at 0.0054 µM.
Turning to `COc1cc(OC)cc(-c2cnc3[nH]cc(C#Cc4ccc(F)cc4)c3c2)c1` [Compound 5c], the EC50 in the data set with RSV-A [1] came out at 0.36 ± 0.064 µM; in the data set with VEEV (TC-83), 6.27 ± 0.93 µM. This molecule also returned a CC50 at 4 days in “in vitro [2]” of 1.66 ± 0.89 µM. Further, the CC50 in “in vitro [3]” is over 10 µM.
For `CCn1cc(C#Cc2cccnc2)c2cc(-c3cc(OC)cc(OC)c3)cnc21` [Compound 7b] the same measures were over 2 µM, 3.92 ± 1.15 µM, 2 µM and over 10 µM.
In the case of `CC(C)CNC(=O)c1cccc(-c2cnc3[nH]cc(C#Cc4cccnc4)c3c2)c1` [Compound 8g], the EC50 with SARS-CoV-2 is 0.76 ± 0.46 µM; with RSV-A [1] it was 0.66 ± 0.22 µM; in the data set on VEEV (TC-83), 3.75 ± 1.08 µM. Also, the CC50 in the data set “in vitro [4]” was over 85 µM; in “in vitro [3]”, over 10 µM. The molecule further gave a CC50 at 4 days in the data set “in vitro [2]” of 3.38 ± 1.01 µM.
